Test results: ChEMBL document CHEMBL1255356, “The efflux pump inhibitor reserpine selects multidrug-resistant Streptococcus pneumoniae strains that overexpress the ABC transporters PatA and PatB” (2008)
In brackets after ≈: the same amount, converted by molar mass.

Assays:
[1] = system: Streptococcus pneumoniae; assay: Inhibition of ABC efflux pump in Streptococcus pneumoniae M186 assessed as increase in accumulation of ethidium bromide by fluorescence method after 10 mins relative to wild type; parameters: scale not given: the % may be the effect or the level left
[2] = system: Streptococcus pneumoniae; assay: Inhibition of ABC efflux pump in Streptococcus pneumoniae M186 assessed as increase in accumulation of ciprofloxacin by fluorometric uptake assay relative to wild type
[3] = system: Streptococcus pneumoniae; assay: Antibacterial activity against Streptococcus pneumoniae R6 by microdilution method; type: functional
[4] = system: Streptococcus pneumoniae; assay: Antibacterial activity against Streptococcus pneumoniae M234 by microdilution method; type: functional
[5] = system: Streptococcus pneumoniae; assay: Antibacterial activity against Streptococcus pneumoniae M235 by microdilution method; type: functional
[6] = system: Streptococcus pneumoniae; assay: Inhibition of ABC efflux pump in Streptococcus pneumoniae M186 assessed as reduction in ciprofloxacin MIC at 80 ug/ml
[7] = system: Streptococcus pneumoniae; assay: Inhibition of ABC efflux pump in Streptococcus pneumoniae M169 assessed as reduction in ciprofloxacin MIC at 80 ug/ml
[8] = system: Streptococcus pneumoniae; assay: Inhibition of ABC efflux pump in Streptococcus pneumoniae M169 assessed as increase in accumulation of ethidium bromide by fluorescence method after 10 mins relative to wild type; parameters: scale not given: the % may be the effect or the level left
[9] = system: Streptococcus pneumoniae; assay: Antibacterial activity against Streptococcus pneumoniae M230 by microdilution method; type: functional
[10] = system: Streptococcus pneumoniae; assay: Antibacterial activity against Streptococcus pneumoniae M186 by microdilution method; type: functional
[11] = system: Streptococcus pneumoniae; assay: Antibacterial activity against Streptococcus pneumoniae M4 by microdilution method; type: functional
[12] = system: Streptococcus pneumoniae; assay: Antibacterial activity against Streptococcus pneumoniae M231 by microdilution method; type: functional
[13] = system: Streptococcus pneumoniae; assay: Inhibition of ABC efflux pump in Streptococcus pneumoniae M184 assessed as increase in accumulation of ethidium bromide by fluorescence method after 10 mins relative to wild type; parameters: scale not given: the % may be the effect or the level left
[14] = system: Streptococcus pneumoniae; assay: Inhibition of ABC efflux pump in Streptococcus pneumoniae M4 assessed as increase in accumulation of ciprofloxacin by fluorometric uptake assay relative to wild type
[15] = system: Streptococcus pneumoniae; assay: Inhibition of ABC efflux pump in Streptococcus pneumoniae M184 assessed as increase in accumulation of ciprofloxacin by fluorometric uptake assay relative to wild type
[16] = system: Streptococcus pneumoniae; assay: Antibacterial activity against Streptococcus pneumoniae M169 by microdilution method; type: functional
[17] = system: Streptococcus pneumoniae; assay: Inhibition of ABC efflux pump in Streptococcus pneumoniae M168 assessed as increase in accumulation of ciprofloxacin by fluorometric uptake assay relative to sStreptococcus pneumoniae M4
[18] = system: Streptococcus pneumoniae; assay: Antibacterial activity against Streptococcus pneumoniae M240 by microdilution method; type: functional
[19] = system: Streptococcus pneumoniae; assay: Antibacterial activity against Streptococcus pneumoniae M246 by microdilution method; type: functional
[20] = system: Streptococcus pneumoniae; assay: Inhibition of ABC efflux pump in Streptococcus pneumoniae M168 assessed as increase in accumulation of ethidium bromide by fluorescence method after 10 mins relative to Streptococcus pneumoniae M4; parameters: scale not given: the % may be the effect or the level left
[21] = system: Streptococcus pneumoniae; assay: Inhibition of ABC efflux pump in Streptococcus pneumoniae M169 assessed as increase in accumulation of ciprofloxacin by fluorometric uptake assay relative to wild type
[22] = system: Streptococcus pneumoniae; assay: Antibacterial activity against Streptococcus pneumoniae M168 by microdilution method; type: functional
[23] = system: Streptococcus pneumoniae; assay: Antibacterial activity against Streptococcus pneumoniae M236 by microdilution method; type: functional
[24] = system: Streptococcus pneumoniae; assay: Antibacterial activity against Streptococcus pneumoniae M184 by microdilution method; type: functional
[25] = system: Streptococcus pneumoniae; assay: Inhibition of ABC efflux pump in Streptococcus pneumoniae M184 assessed as reduction in ciprofloxacin MIC at 80 ug/ml
[26] = system: Streptococcus pneumoniae; assay: Antibacterial activity against Streptococcus pneumoniae M233 by microdilution method; type: functional

Activity [1]: 32.9%
fold change (FC) [2]: 2.1
MIC [3]: 64 µg/mL (≈ 105 µM)
MIC [4]: 64 µg/mL (≈ 105 µM)
MIC [5]: 256 µg/mL (≈ 421 µM)
Activity [6]: 1 µg/mL
Activity [7]: 1 µg/mL
Activity [8]: 24.6%
MIC [9]: 256 µg/mL (≈ 421 µM)
MIC [10]: 256 µg/mL (≈ 421 µM)
MIC [11]: 64 µg/mL (≈ 105 µM)
MIC [12]: 64 µg/mL (≈ 105 µM)
Activity [13]: 26.7%
fold change (FC) [14]: 1.6
fold change (FC) [15]: 2.8
MIC [16]: 256 µg/mL (≈ 421 µM)
fold change (FC) [17]: 2.3
MIC [18]: 64 µg/mL (≈ 105 µM)
MIC [19]: 64 µg/mL (≈ 105 µM)
Activity [20]: 27.7%
fold change (FC) [21]: 2.9
MIC [22]: 256 µg/mL (≈ 421 µM)
MIC [23]: 64 µg/mL (≈ 105 µM)
MIC [24]: 256 µg/mL (≈ 421 µM)
Activity [25]: 1 µg/mL
MIC [26]: 256 µg/mL (≈ 421 µM)
Structure (SMILES): COC(=O)[C@H]1[C@H]2C[C@@H]3c4[nH]c5cc(OC)ccc5c4CCN3C[C@H]2C[C@@H](OC(=O)c2cc(OC)c(OC)c(OC)c2)[C@@H]1OC [RESERPINE]
